Calls of active or inactive are those of the source. No cut-off for these calls is given here.
Columns and labels:
[1] = Half life in pig urine at 10 mg/kg, po measured upto 240 mins by LC-MS/MS analysis; type: ADME, organism-based, Sus scrofa
[2] = Half life in NMRI female mouse at 20 mg/kg, sc by HPLC analysis; type: ADME, organism-based; conditions: in vivo
[3] = Elimination rate constant in pig plasma at 3 mg/kg, iv measured upto 240 mins by LC-MS/MS analysis; type: ADME, organism-based, Sus scrofa
[4] = Clearance in pig plasma at 3 mg/kg, iv measured upto 240 mins by LC-MS/MS analysis; type: ADME, organism-based, Sus scrofa
[5] = Half life in NMRI female mouse at 30 mg/kg, iv by HPLC analysis; type: ADME, organism-based; conditions: in vivo
[6] = Clearance in NMRI female mouse at 30 mg/kg, iv by HPLC analysis; type: ADME, organism-based; conditions: in vivo
[7] = Tmax in NMRI female mouse at 20 mg/kg, sc by HPLC analysis; type: ADME, organism-based; conditions: in vivo
[8] = Cmax in pig urine at 3 mg/kg, iv measured upto 240 mins by LC-MS/MS analysis; type: ADME, organism-based, Sus scrofa
[9] = Tmax in pig plasma at 10 mg/kg, po measured upto 240 mins by LC-MS/MS analysis; type: ADME, organism-based, Sus scrofa
[10] = Tmax in pig urine at 3 mg/kg, iv measured upto 240 mins by LC-MS/MS analysis; type: ADME, organism-based, Sus scrofa
[11] = Clearance in pig plasma at 10 mg/kg, po measured upto 240 mins by LC-MS/MS analysis; type: ADME, organism-based, Sus scrofa
[12] = Volume of distribution in NMRI female mouse at 60 mg/kg, sc by HPLC analysis; type: ADME, organism-based; conditions: in vivo
[13] = Tmax in NMRI female mouse at 60 mg/kg, sc by HPLC analysis; type: ADME, organism-based; conditions: in vivo
[14] = Half life in NMRI female mouse at 60 mg/kg, sc by HPLC analysis; type: ADME, organism-based; conditions: in vivo
[15] = Cmax in NMRI female mouse at 60 mg/kg, sc by HPLC analysis; type: ADME, organism-based; conditions: in vivo
[16] = Half life in pig plasma at 10 mg/kg, po measured upto 240 mins by LC-MS/MS analysis; type: ADME, organism-based, Sus scrofa
Staphylococcus aureus [17] = assay: (§1) Induction of resistant development in linezolid 5 passages resistance developed Staphylococcus aureus USA300 FPR3757 assessed as fold increase in MIC at sub-MIC concentration measured after 13 passages with conjugate by serial passage assay; type: functional
Staphylococcus aureus [18] = assay: Induction of resistant development in lefamulin 5 passages resistance developed Staphylococcus aureus USA300 FPR3757 assessed as fold increase in MIC at sub-MIC concentration measured after 13 passages with conjugate by serial passage assay; type: functional
Staphylococcus aureus [19] = assay: Antibacterial activity against multi drug-resistant Staphylococcus aureus USA300 FPR3757 assessed as reduction in bacterial growth at 1 times of MIC concentration measured after 24 hrs by time-kill assay; type: functional, organism-based
Staphylococcus aureus [20] = assay: Induction of resistant development in linezolid 5 passages resistance developed Staphylococcus aureus USA300 FPR3757 assessed as fold increase in MIC at sub-MIC concentration measured after 22 passages with conjugate by serial passage assay; type: functional
[21] = Cardio-toxicity in human assessed as QT prolongation by measuring increase in mean QTc
Escherichia coli = assay: Antibacterial activity against Escherichia coli assessed as inhibition of visible growth incubated for 20 to 24 hrs by microbroth serial dilution assay; type: functional, organism-based; conditions: time 20-24 hrs
Listeria = assay: Antibacterial activity against Listeria assessed as inhibition of visible growth incubated for 20 to 24 hrs by microbroth serial dilution assay; type: functional, organism-based; conditions: time 20-24 hrs
Staphylococcus aureus [22] = assay: Induction of resistant development in lefamulin 5 passages resistance developed Staphylococcus aureus USA300 FPR3757 assessed as fold increase in MIC at sub-MIC concentration measured after 9 passages with conjugate by serial passage assay; type: functional
Staphylococcus aureus [23] = assay: as §1, with “-(6-(6-(Piperazin-1-y1)-9H-purin-9-y)methyl)pyridin-3-y1)-1H-1,2,3-triazol-1-yl)-22-deoxypleuromutilin-16” for “linezolid 5”, “28” for “13”; type: functional
Staphylococcus aureus [24] = assay: Induction of resistant development in lefamulin 5 passages resistance developed Staphylococcus aureus USA300 FPR3757 assessed as fold increase in MIC at sub-MIC concentration measured after 18 passages with conjugate by serial passage assay; type: functional

**Q.** Which results are given for `C=C[C@]1(C)C[C@@H](OC(=O)Cn2cc(-c3ccc(Cn4cnc5c(N6CCNCC6)ncnc54)nc3)nn2)[C@]2(C)[C@H](C)CC[C@]3(CCC(=O)[C@H]32)[C@@H](C)[C@@H]1O`?
**A.** half-life [1]: 132 min; half-life [2]: 124 min; k el at 4 h [3]: 0.000155 s⁻¹; clearance [4]: 84.7 mL/min/kg; half-life [5]: 52.8 min; clearance [6]: 69.8 mL/min/kg; Tmax [7]: 15 min; Cmax [8]: 18700 ng/mL; Tmax [9]: 15 min; Tmax [10]: 60 min; CL/F [11]: 1420 mL/min/kg; Vd [12]: 22 L/kg; Tmax [13]: 15 min; half-life [14]: 114 min; Cmax [15]: 2560 ng/mL; half-life [16]: 22.2 min

**Q.** Which fold change (FC) (Staphylococcus aureus [17]) does the source give for `C=C[C@]1(C)C[C@@H](OC(=O)CS[C@@H]2CC[C@@H](N)C[C@H]2O)[C@]2(C)[C@H](C)CC[C@]3(CCC(=O)[C@H]32)[C@@H](C)[C@@H]1O` [LEFAMULIN] here?
**A.** 16

**Q.** What about the fold change (FC) (Staphylococcus aureus [18]) of the same compound?
**A.** 32

**Q.** What about the Activity (Staphylococcus aureus [19]) of the same compound?
**A.** inactive

**Q.** And the fold change (FC) (Staphylococcus aureus [20])?
**A.** 32

**Q.** What about the QTc increase [21] of the same compound?
**A.** 10 ms

**Q.** And the Activity (Escherichia coli)?
**A.** inactive

**Q.** And the Activity (Listeria)?
**A.** inactive

**Q.** And the fold change (FC) (Staphylococcus aureus [22])?
**A.** 16

**Q.** And the fold change (FC) (Staphylococcus aureus [23])?
**A.** 128

**Q.** What about the fold change (FC) (Staphylococcus aureus [24]) of the same compound?
**A.** 32

Reference: ChEMBL document CHEMBL5518206, “Hit-to-Lead Identification and Validation of a Triaromatic Pleuromutilin Antibiotic Candidate” (J Med Chem, 2024)
